Reference: patent publication US8410105B2, “Pyridazinyl amine derivatives, the use thereof in the preparation of picorna virus inhibitors” (Institute of Pharmacology and Toxicology Academy of …, priority 2005, dated 2013)

What was measured:
[1] = tested on: Rhinovirus-3(HRV-3); assay: Preventive administration: drug pre-mixed with virus, protection of HeLa cells from CPE; type: cell-based; conditions: drug 100 ng/ml, virus about 100 TCID50, 33° C., three days, FIG. 1
Experimental: (§1) HeLa cells (self-preserved in the laboratory)
(§2) Rhinovirus-3(HRV-3) (ATCC: VR-1113)
Principle: the drug and the virus were pre-mixed and incubated to block the procedure of viral uncoating and invasion into cells.
Methods: the drug at a concentration of 100 ng/ml was placed into a 12-well plate, then viral dose at TCID50 value of about 100 was added, after 0.5 h, 500,000 cells were added into each well, and incubated at 33° C. After three days, when the control group presented 100% cytopathic effect (CPE), the effects of the drug for preventing cells from being phagocytized were observed, and expressed as cell protection rate (%).

[2] = tested on: Rhinovirus-3(HRV-3); assay: Therapeutic administration: drug added after viral infection of adherent HeLa cells, protection from CPE; type: cell-based; conditions: drug 100 ng/ml added 0.5 h after virus (about 100 TCID50), 33° C., three days, FIG. 2
Experimental: as §1, §2
Method: 500,000 cells were added into each well, incubated at 33° C. overnight for adherence, then viral dose at TCID50 value of about 100 was added, the culture medium was removed by absorption after 0.5 h, the drug was added into a 12-well plate at a concentration of 100 ng/ml, the total volume of the reaction system was 2 ml. After three days, when the virus control group presented 100% cytophagocytesis (CPE), the effects of the drug for preventing cells from being phagocytized were observed.

[3] = tested on: rhinovirus; assay: Ex vivo anti-rhinovirus screening: ACh-induced tension of rabbit tracheal rings exposed to rhinovirus; conditions: for Tension, average: drug 100 μg/ml plus rhinovirus, rabbit tracheal rings

COC(=O)c1ccc(OCCN2CCN(c3cc(Cl)nnc3Cl)CC2)nc1 [Example 32, 6-{2-[4-(3,6-dichloropyridazin-4-yl)piperazin-1-yl]-ethoxy}-nicotinic acid methyl ester]
effects of the drug for preventing cells from being phagocytized, cell protection rate [1]: better effects

Cc1cccc(C)c1OCCN1CCN(c2cc(Cl)nnc2Cl)CC1 [Example 4, 3,6-dichloro-4-{4-[2-(2,6-dimethyl-phenoxyethyl)]-piperazin-1-yl}pyridazine]
effects of the drug for preventing cells from being phagocytized, cell protection rate [1]: better effects

4-{2-[4-(3,6-dichloropyridazin-4-yl)-piperazin]-1-yl)-ethoxy]-benzoic acid isopropyl ester [Example 13]
effects of the drug for preventing cells from being phagocytized, cell protection rate [1]: better effects

CCOC(=O)c1ccc(OCCN2CCN(c3cc(Cl)nnc3Cl)CC2)nc1 [Example 31, 6-{2-[4-(3,6-dichloro-pyridazin-4-yl)-piperazin-1-yl]-ethoxy}-nicotinic acid ethyl ester]
effects of the drug for preventing cells from being phagocytized, cell protection rate [1]: better effects | effects of the drug for preventing cells from being phagocytized [2]: better effects | Tension, average ([3]; Ach concentration (log M) −3): 1.95 g | Tension, average ([3]; Ach concentration (log M) −3.7): 1.86 g | Tension, average ([3]; Ach concentration (log M) −4): 1.72 g | Tension, average ([3]; Ach concentration (log M) −4.3): 1.54 g | Tension, average ([3]; Ach concentration (log M) −4.7): 1.30 g | Tension, average ([3]; Ach concentration (log M) −5): 1.00 g | Tension, average ([3]; Ach concentration (log M) −5.3): 0.73 g | Tension, average ([3]; Ach concentration (log M) −5.7): 0.35 g | Tension, average ([3]; Ach concentration (log M) −6): 0.11 g | Tension, average ([3]; Ach concentration (log M) −7): 0.00 g | effect on the rhinovirus-caused excessive increase of Ach-induced tracheal smooth muscular tension ([3]; drug 100 μg/ml, FIG. 3): obviously inhibit the excessive increase of Ach-induced tracheal smooth muscular tension caused by rhinovirus
